# Test results from patent US9618511B2, “Methods and compositions for treating alzheimer's disease” (Eleanore Bennett Charitable Trust #2, priority 2008, dated 2017).
# Like-named read-outs stand apart in the source and are kept apart here.
# Tests used:
# pre-activated Akt1 = target: T1, pre-activated Akt1 (Mus musculus, UniProt P31750); assay: In vitro kinase assay on pre-activated (insulin-conditioned) Akt1; format: biochemical, mouse (C2C12 myotubes); conditions: 10 μM peptide
# T1 construct: Akt1 was immunoprecipitated from control and insulin treated C2C12 myotubes for in vitro kinase assay; endogenous in cells; host or cells: insulin-treated mouse C2C12 myotubes
# Description: (§1) Akt1 was immunoprecipitated (IP) overnight from 100 μg of the human brain sample or from C2C12 myotubes infected with adenovirus encoding Aβ using a 1:100 dilution of goat anti-Akt1 antibody. The following morning, 40 μl of a 50% slurry of protein G-Agarose (PGA) (Roche Applied Science) was added for an additional 1.5 hours. The beads were washed twice with wash buffer [1× phosphate buffered saline (PBS), 0.5% NP-40, 0.1 mM Na3VO4] and twice with kinase buffer [25 mM Tris (pH 7.5), 2 mM DTT, 0.1 mM Na3VO4, 10 mM MgCl2]. ATP (200 μM) and GSK-3 fusion protein (1 μg/50 μl) were added in the presence of kinase buffer, and the final reaction (50 μl) was incubated 30 minutes at 30° C. The reaction was stopped by adding 40 μl of Laemmli buffer. 20 μl of sample was loaded onto a 10% polyacrylamide gel for fractionation and western detection development.
# Variably however, the degree of inhibition sometimes exceeded the baseline activity in the absence of PDK. Thus, it is possible that Aβ may have an additional action to deactivate Akt. […] Insulin stimulated Akt activity in extracts made from C2C12myotube cultures (FIG. 9A, 3rd row, lane 2 vs. 1). […]
# In FIG. 9B Aβ42 (10 μM) and scrambled Aβ42 had no effect on insulin-conditioned Akt1 activity. Protein phosphatase 2A (PP2A; 5 μg/ml) decreased levels of both p-Akt (Ser473) and Akt activity (p-GSK-3 α/β), quantified by densitometry below.
# [1] = tested on: PDK-dependent activation of Akt1; assay: In vitro PDK-dependent Akt1 phosphorylation and activity assay (immunoprecipitated PDK1 and Akt1, GSK-3 fusion protein substrate); format: biochemical, human (SH-SY5Y, HEK293), mouse (C2C12); conditions: for IC50: in vitro Aβ conditions; for Ki: monomeric-predominant preparations
# Description: as §1
# Immunoprecipitates (IPs) of PDK1 and Akt were prepared from 100 μg of either SH-SY5Y, C2C12 myotubes or from insulin-treated cultures. ATP (200 μM), GSK-3 fusion protein (1 μg/50 μl) and kinase buffer were added to the reaction. Various Aβ peptides were finally added at 0.01, 0.1, 1, 5, 10, 20 μM. Akt activity level was otherwise determined as above.
# Rictor-stimulated Akt1 = target: T2, Rictor-stimulated Akt1; assay: Rictor-dependent Akt1 activity, in vitro kinase assay; format: biochemical, mouse (C2C12 myotubes); conditions: 10 μM
# T2 construct: endogenous in cells; host or cells: Rictor from insulin-treated C2C12 myotubes
# Text: Another kinase, termed SGK (serum/glucocorticoid regulated kinase), is also activated by PDK. Similar to Akt, SGK has a PH domain and phosphorylates GSK-3 α/β (Kobayashi, T., Deak, M., Morrice, N., and Cohen, P., 1999, Characterization of the structure and regulation of two novel isoforms of serum- and glucocorticoid-induced protein kinase, Biochem J 344 Pt 1:189-197, and Tessier, M., and Woodgett, J. R., 2006, Serum and glucocorticoid-regulated protein kinases: variations on a theme, J Cell Biochem 98:1391-1407). If Aβ inhibits PH-mediated activations of Akt independent of PIP3, it is predicted to affect this mechanism too. Indeed, in FIG. 7D, ADDL-containing Aβ preparations inhibited PDK-stimulated SGK activity (lane 7 vs. 6 and 5). […] This enhanced activity was not however, interrupted by Aβ (10 μM, lane 4 vs. 3). Lastly, another kinase that converges to phosphorylate GSK, PKA (Grimes, C. A., and Jope, R. S., 2001, The multifaceted roles of glycogen synthase kinase 3beta in cellular signaling, Prog Neurobiol 65:391-426; Li, M., Wang, X., Meintzer, M. K., Laessig, T., Birnbaum, M. J., and Heidenreich, K. A., 2000, Cyclic AMP promotes neuronal survival by phosphorylation of glycogen synthase kinase 3beta, Mol Cell Biol 20:9356-9363), was tested. […] Thus, the mechanism of Aβ inhibition of Akt activation is specific to PDK-like kinases. […]
# [2] = FIG. 7A, vs reverse peptide 5 μM
# T1 sequence (P31750 whole entry): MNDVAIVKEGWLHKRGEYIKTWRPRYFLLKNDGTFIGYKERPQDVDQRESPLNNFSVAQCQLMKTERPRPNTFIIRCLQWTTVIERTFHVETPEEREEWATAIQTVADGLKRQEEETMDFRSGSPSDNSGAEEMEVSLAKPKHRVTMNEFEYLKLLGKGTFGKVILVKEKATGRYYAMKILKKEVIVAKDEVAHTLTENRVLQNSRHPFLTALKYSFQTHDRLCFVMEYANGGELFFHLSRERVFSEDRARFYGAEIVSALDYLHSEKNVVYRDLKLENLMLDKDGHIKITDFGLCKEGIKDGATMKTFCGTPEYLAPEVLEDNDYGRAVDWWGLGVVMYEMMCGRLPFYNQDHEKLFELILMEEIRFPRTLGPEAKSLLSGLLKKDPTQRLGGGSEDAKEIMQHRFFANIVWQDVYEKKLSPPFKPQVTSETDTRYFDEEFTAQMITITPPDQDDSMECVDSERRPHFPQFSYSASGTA
# T2 sequence (P31749 whole entry): as the sequence (P31750 whole entry) above, with N2S, S50A, A100T, R112K, T117E, T389K, N410G, D415H counted along it
substance,measurement,setting,value
"Aβ42: synthetic 42 amino acid β-amyloid peptide, forward sequence, freshly prepared, predominantly monomeric (BioSource)",insulin-conditioned Akt1 activity and p-Ser473 levels,pre-activated Akt1,no effect
same,effect on PDK-stimulated Akt activity (GSK-3 substrate phosphorylation),[1]; 5 μM (or doses up to 5 μM),dramatically inhibited
same,effect on PDK-stimulated Akt activity / Akt phosphorylation,[1]; 10 μM,completely abrogated
same,inhibition of Akt phosphorylation,"[1]; 10 μM, freshly prepared predominantly monomeric peptide",up to 50%
same,effect on PDK-stimulated Akt activity / Akt phosphorylation,"[1]; 10 μM, listed as Aβ",inhibited
same,concentrations that significantly inhibit Akt phosphorylation (activation),[1]; [2],≥ 10 µM
same,concentrations that significantly inhibit the stimulation of Akt activity,[1]; [2],≥ 5 µM
same,"concentration at which Akt activation (pSer473, pThr308) and Akt activity begin to be affected","[1]; SH-SY5Y IP kinases, FIG. 6B",~1 μM
same,IC50,"[1]; FIG. 7A, read-out: PDK-dependent Akt1 phosphorylation (Ki50)",~10000 nM
same,IC50,"[1]; activity assay, FIG. 7A, listed as Aβ, read-out: PDK-dependent Akt1 activation (Ki50)",~1000 nM
same,IC50,"[1]; activity assay, FIG. 7A, read-out: PDK-dependent Akt1 activation (Ki50)",1000 nM
same,Ki,[1]; read-out: Ki in activity assays,~2000 nM
same,Ki,[1]; read-out: Ki in western blots of p-Akt levels,~10000 nM
same,PDK stimulation of Akt activity after preincubation and washout,"[1]; preincubation of both IP kinases, washout before kinase reaction",no inhibitory effect
same,Rictor-stimulated Akt1 activity,Rictor-stimulated Akt1,no change
